We go through one compound from US20220213052A1, “INHIBITORS OF RNA-BINDING PROTEINS, COMPOSITIONS THEREOF, AND THERAPEUTIC USES THEROF” (The University of North Carolina at Chapel Hill, priority 2019, published 2022).

For data set [1], the system named is 2LMP subclone generated from MDA-MB-231. The experiment in a line: 2LMP mouse xenograft model. The data set is classed as in vivo. The text has this: Xenograft and orthotopic models of cancer cell lines with HuR overexpression will be used to test the in vivo therapeutic potential of compounds of the present technology. A person of ordinary skill in the art is well apprised of cancer cell lines with HuR overexpression, as exemplified by references 2-12 cited herein in the “References” section. Tumor models will be established as described in Xu, L., et al., (−)−Gossypol enhances response to radiation therapy and results in tumor regression of human prostate cancer. Mol Cancer Ther, 2005. 4(2): p. 197-205.35 Briefly, 4-6 week old athymic NCr-nu/nu mice or 8-10-week-old NOD/SCID mice will be inoculated subcutaneously on both sides of flanks with 0.1 ml of a cell suspension of 1-5×10^6 tumor cells. Tumors will be allowed to grow to approximately 100 mm^3, when the blood vessel supplies to the tumor are established. Each group will contain at least 5 animals with at least 10 tumors across the five animals. Animals will be given compounds or vehicle i.v., i.p. or q.o.d.×2-3 weeks as described in Xu, L., et al., Systemic p53 gene therapy of cancer with immunolipoplexes targeted by anti-transferrin receptor scFv. Mol Med, 2001. 7(10): p. 723-34 and Xu, L., et al., Self-assembly of a virus-mimicking nanostructure system for efficient tumor-targeted gene delivery. […] The tumor sizes and animal body weights will be measured twice a week. […]

The target of data set [2] is T1, RNA-binding protein Lin-28 homolog B (LIN28B) (Homo sapiens, UniProt Q6ZN17).
T1 sequence (Q6ZN17 1-250): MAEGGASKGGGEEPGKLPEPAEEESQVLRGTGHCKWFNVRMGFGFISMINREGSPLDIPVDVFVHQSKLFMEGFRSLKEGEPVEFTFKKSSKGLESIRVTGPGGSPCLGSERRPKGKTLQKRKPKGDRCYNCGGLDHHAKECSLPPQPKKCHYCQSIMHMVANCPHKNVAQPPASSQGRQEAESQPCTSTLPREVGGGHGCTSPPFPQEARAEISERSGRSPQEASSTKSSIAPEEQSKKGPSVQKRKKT
The experiment in a line: LIN28B FP assay.

Data set [3] concerns triple-negative breast cancer cell line MDA-MB-231. The experiment in a line: Cytotoxicity assay (WST-8), MDA-MB-231. In kind it is cell-based. The following applies: Homo sapiens, 96 h incubation. Put shortly: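 Cells (3,000-5,000/well) were treated in triplicate with titrated compounds for 96 h, then WST-8 was added for 1-3 h at 37° C and absorbance read at 450 nm (650 nm correction). IC50 (50% growth inhibition vs vehicle) came from sigmoid curve fitting.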
(In general: Tetrazolium assays rely on reduction of a dye to a coloured formazan, in cell work by metabolically active cells.)

Another data set deals with Musashi 2 (Msi2) (Homo sapiens, UniProt Q96DH6). The data set is described as follows: Msi2 FP assay. The note with it: cell marked (RRM1), read-out: Msi2 (Ki) (RRM1). The data set is classed as binding.
Data set [4] relates to MDA-MB-231 HuR knockout clones (HuR KO1 and HuR KO2). The experiment in a line: Cytotoxicity against HuR knockout clones of MDA-MB-231. The data set is classed as cell-based. The following applies: HuR KO1 and HuR KO2 vs MDA-MB-231 and sgControl. How it is done:
The cytotoxicity of various compounds of the present technology in several cancer cell lines (pancreatic cancer cell line MIAPaCa-2, triple-negative breast cancer cell line MDA-MB-231, and colon cancer cell lines HCT116, HCT116 β/W, and RKO) was assessed by a cytotoxicity assay. Cells were seeded in 96-well culture plates (3,000-5,000 cells/well) and treated with titrated compounds in triplicate. After 96 h incubation, cell growth medium was removed and proliferation reagent WST-8 (Sigma) was added to each well and incubated at 37° C. for 1-3 h. Absorbance was then measured with a plate reader at 450 nm with correction at 650 nm. The results were expressed as the percentage of absorbance of treated wells versus that of vehicle control. IC50, the drug concentration causing 50% growth inhibition, was calculated via sigmoid curve fitting using GraphPad Prism 5.0. The results for those compounds tested against MIAPaCa-2 and MDA-MB-231 are provided in Table 1; the results for those compounds tested against colon cancer cell lines HCT116, HCT116 β/W, and RKO are provided in Table 3.
The cytotoxicity of KH-39 and KH-58 against HuR knockout clones was probed by the same assay as described above. […]

In data set [5] the test system is MDA-MB-231 mouse xenograft. The data set is described as follows: MDA-MB-231 mouse xenograft model, KH-39 alone and with docetaxel. The data set is classed as in vivo, mice. The following applies: after three-week treatment; KH-39 i.p. 50 mg/kg 5 times per week; TXT i.v.; ***P<0.001, ****P<0.0001, n=12. The text has this: Cytotoxicity assays (as described earlier in this disclosure) for various cancer cell lines will also be performed utilizing concentrations of a compound of the present technology that are below the lethal threshold for the compound for the particular cancer (a “sub-lethal concentration”) in combination with a chemotherapeutic compound (e.g., docetaxel or doxorubicin) to illustrate compounds of the present technology sensitize cancer cell lines to chemotherapy. By way of illustration in an in vivo model, in vivo antitumor efficacy of KH-39 was examined in combination with docetaxel (a first-line chemotherapy for human breast cancer) in a MDA-MB-231 mouse xenograft model. For this, tumor-bearing female athymic mice were provided according to the protocols described earlier in the present disclosure and were randomized into four groups. One group of mice was treated with KH-39 (i.p. 50 mg/kg, 5 times per week), one group with docetaxel (TXT; i.v. at the dosages and time intervals indicated in FIG. 12), one group with a combination of KH-39 and TXT (KH-39 i.p. 50 mg/kg, 5 times per week and TXT i.v. at the dosages and time intervals indicated in FIG. 12), and one group of mice as the vehicle control. FIG. 12 illustrates the results, providing the tumor growth curves for each group.

pIC50, pKi: −log10 of the molar value.

Sequence of Musashi 2 (Msi2) (Q96DH6 whole entry, species assumed): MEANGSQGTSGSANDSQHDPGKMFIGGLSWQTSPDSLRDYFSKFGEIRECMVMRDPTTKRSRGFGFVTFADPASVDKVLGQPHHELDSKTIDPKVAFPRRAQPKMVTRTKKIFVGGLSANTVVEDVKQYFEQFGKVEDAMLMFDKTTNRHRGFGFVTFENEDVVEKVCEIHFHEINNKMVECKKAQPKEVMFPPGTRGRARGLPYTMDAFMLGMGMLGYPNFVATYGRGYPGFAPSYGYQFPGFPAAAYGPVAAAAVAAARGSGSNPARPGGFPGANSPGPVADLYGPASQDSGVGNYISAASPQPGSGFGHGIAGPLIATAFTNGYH

Take `CC(C)(C)c1ccc(C(=O)Nc2ccc3[nH]c(C(=O)NO)cc3c2)cc1` [KH-39, 5-(4-(tert-butyl)benzamido)-N-hydroxy-1H-indole-2-carboxamide]: the “bodyweight gain of mice” value in data set [1] (2LMP xenograft model) is “gain bodyweight with similar trend to those in vehicle control group”. Also, the “tumor growth compared to the vehicle control” value in data set [1] (after three-week treatment, ****P<0.0001, n=10) was “significantly decreased tumor growth”. Moreover, the pKi in data set [2] is under 4.70; on Musashi 2 (Msi2), 5.50. The pIC50 in data set [3] is 5.32. The “IC50 of HuR KO clones versus parental cells and vector control cells” value in data set [4] is on record as “two to three folds higher IC50 values”. For the same compound, the “relative tumor sizes versus control group” value in data set [5] is reported as “significantly smaller than those in control group”.

One may read the pKi as the negative decadic logarithm of the Ki, by convention in mol/L. What is called pIC50 is −log10 of the IC50, conventionally taken in molar units. The low end stands for a large IC50, the high end for a small IC50.
